{
  "source": "ChEMBL document CHEMBL3046570",
  "about": "“Synthesis, structure characterization, and biological evaluation of some new 1,2,3-benzotriazole derivatives” (2010)",
  "key": {"Mycosphaerella arachidis": {"test_system": "Mycosphaerella arachidis", "assay": "Fungicidal activity against Mycosphaerella arachidis assessed as inhibition of mycelium formation at 50 ug/ml after 72 hr (reference value: 0.005%)", "type": "functional"}, "Homo sapiens": {"species": "Homo sapiens", "assay": "Cytotoxicity against Homo sapiens (human) HEP7402 cells assessed as decrease in cell viability at 0.05 to 0.2 mM after 24 to 72 hr by MTT assay", "type": "functional, cell-based"}, "4T1 [1]": {"test_system": "4T1", "assay": "Cytotoxicity against Mus musculus (mouse) 4T1 cells assessed as cell survival at 0.2 mM after 24 hr by MTT assay relative to control", "type": "functional", "details": "4T1, 24 h, read-out: Survival"}, "4T1 [2]": {"test_system": "4T1", "assay": "Cytotoxicity against Mus musculus (mouse) 4T1 cells assessed as decrease in cell viability after 24 to 72 hr by MTT assay", "type": "functional, cell-based"}, "4T1 [3]": {"test_system": "4T1", "assay": "Cytotoxicity against Mus musculus (mouse) 4T1 cells assessed as decrease in cell viability at 0.2 mM by MTT assay", "type": "functional, cell-based", "details": "TDE = time-dependent effect"}, "4T1 [4]": {"test_system": "4T1", "assay": "Cytotoxicity against Mus musculus (mouse) 4T1 cells assessed as cell survival at 0.2 mM after 72 hr by MTT assay relative to control", "type": "functional", "details": "4T1, 72 h, read-out: Survival"}, "4T1 [5]": {"test_system": "4T1", "assay": "Cytotoxicity against Mus musculus (mouse) 4T1 cells assessed as cell survival at 0.2 mM after 48 hr by MTT assay relative to control", "type": "functional", "details": "4T1, 48 h, read-out: Survival"}},
  "note": "Calls of active or inactive are those of the source. The rule behind the calls is not given here.",
  "data": [
    {"compound": "Cc1ccc(C(=O)C(Cn2nnc3ccccc32)OC(=O)c2cccnc2)cc1", "note": "(stereo unspecified)", "values": [
      {"measurement": "inhibition at 50 µg/mL", "setting": "Mycosphaerella arachidis", "result": 0, "unit": "%"},
      {"measurement": "Activity", "setting": "Homo sapiens", "result": "Active"}
    ]},
    {"compound": "O=C(OC(Cn1nnc2ccccc21)C(=O)c1ccc(Cl)cc1Cl)c1cccnc1", "note": "(stereo unspecified)", "values": [
      {"measurement": "inhibition at 50 µg/mL", "setting": "Mycosphaerella arachidis", "result": 31.3, "unit": "%"}
    ]},
    {"compound": "O=C(OC(Cn1nnc2ccccc21)C(=O)c1ccc(Cl)cc1)c1cccnc1", "note": "(stereo unspecified)", "values": [
      {"measurement": "viability at 200 µM", "setting": "4T1 [1]", "result": 52.2, "unit": "%"},
      {"measurement": "Activity", "setting": "4T1 [2]", "result": "Dose-dependent effect"},
      {"measurement": "inhibition at 50 µg/mL", "setting": "Mycosphaerella arachidis", "result": 18.8, "unit": "%"},
      {"measurement": "Activity", "setting": "4T1 [3]", "result": "tde"},
      {"measurement": "viability at 200 µM", "setting": "4T1 [4]", "result": 40.3, "unit": "%"},
      {"measurement": "viability at 200 µM", "setting": "4T1 [5]", "result": 45, "unit": "%"}
    ]},
    {"compound": "O=C(OC(Cn1nnc2ccccc21)C(=O)c1ccccc1)c1ccncc1", "note": "(stereo unspecified)", "values": [
      {"measurement": "inhibition at 50 µg/mL", "setting": "Mycosphaerella arachidis", "result": 13, "unit": "%"}
    ]},
    {"compound": "O=C(OC(Cn1nnc2ccccc21)C(=O)c1ccccc1)c1cccnc1", "note": "(stereo unspecified)", "values": [
      {"measurement": "inhibition at 50 µg/mL", "setting": "Mycosphaerella arachidis", "result": 15, "unit": "%"}
    ]}
  ]
}
